Experimental data: article PMC4125815, “Crystal structure of tRNA m^1A58 methyltransferase TrmI from Aquifex aeolicus in complex with S-adenosyl-L-methionine” (Journal of Structural and Functional Genomics, 2014)

Target: T1, A. aeolicus TrmI (Aquifex aeolicus, UniProt O66653)
T1 construct: gene aq_311
Assay: X-ray crystal structure of the complex, […] Å
Assay type: binding
Conditions: co-crystallised with 2 mM AdoMet, pH 8.4, 20 °C; methyl donor site in C-terminal domain, 4 AdoMet per tetramer

T1 sequence (O66653 1-248): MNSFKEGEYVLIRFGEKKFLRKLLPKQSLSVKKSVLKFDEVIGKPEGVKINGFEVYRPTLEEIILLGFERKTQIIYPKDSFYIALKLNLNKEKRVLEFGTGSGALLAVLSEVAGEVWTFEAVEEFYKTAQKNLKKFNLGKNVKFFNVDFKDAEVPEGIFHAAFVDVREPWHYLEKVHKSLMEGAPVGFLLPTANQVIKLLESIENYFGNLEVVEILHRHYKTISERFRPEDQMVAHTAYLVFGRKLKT

Question: How did the “X-ray crystal structure of the complex, 2.2 Å” value turn out when C[S+](CC[C@H](N)C(=O)O)C[C@H]1O[C@@H](n2cnc3c(N)ncnc32)[C@H](O)[C@@H]1O (stereo partly shown) [AdoMet] was run?
Answer: The value was “The methyl donor AdoMet is bound in the C-terminal domain of the protein”.
